Assay results as given in PubChem BioAssay (NCI).
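Method: 48-hour compound exposure of cells in 96-well plates, five concentrations, linear interpolation of endpoints. TGI denotes the concentration required for complete inhibition of growth.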

How the values were obtained:
Experiment in all cases: inhibition of tumour cell growth, NCI panel, 48 h
OVCAR-5 ovarian = tested on: OVCAR-5 ovarian
EKVX NSCLC = tested on: EKVX NSCLC
SK-MEL-2 melanoma = tested on: SK-MEL-2 melanoma
UACC-257 melanoma = tested on: UACC-257 melanoma
COLO 205 colon = tested on: COLO 205 colon
HCC-2998 colon = tested on: HCC-2998 colon
A549 NSCLC = tested on: A549 NSCLC
KM20L2 colon = tested on: KM20L2 colon
SR leukemia = tested on: SR leukemia
KM12 colon = tested on: KM12 colon
NCI-H226 lung = tested on: NCI-H226 lung
SF-295 CNS = tested on: SF-295 CNS
NCI-H23 lung = tested on: NCI-H23 lung
NCI-H460 lung = tested on: NCI-H460 lung
SK-OV-3 ovarian = tested on: SK-OV-3 ovarian
K-562 leukemia = tested on: K-562 leukemia
SF-268 CNS = tested on: SF-268 CNS
SW-620 colon = tested on: SW-620 colon
MOLT-4 leukemia = tested on: MOLT-4 leukemia
ACHN renal = tested on: ACHN renal
MALME-3M melanoma = tested on: MALME-3M melanoma
NCI-H522 lung = tested on: NCI-H522 lung
M19-MEL melanoma = tested on: M19-MEL melanoma
SK-MEL-5 melanoma = tested on: SK-MEL-5 melanoma
SNB-75 CNS = tested on: SNB-75 CNS
U251 CNS = tested on: U251 CNS
HOP-18 NSCLC = tested on: HOP-18 NSCLC
SNB-19 CNS = tested on: SNB-19 CNS
RPMI-8226 leukemia = tested on: RPMI-8226 leukemia
HL-60(TB) leukemia = tested on: HL-60(TB) leukemia
DLD-1 colon = tested on: DLD-1 colon
SK-MEL-28 melanoma = tested on: SK-MEL-28 melanoma
LOX IMVI melanoma = tested on: LOX IMVI melanoma
IGROV1 ovarian = tested on: IGROV1 ovarian
CAKI-1 renal = tested on: CAKI-1 renal
DMS 114 small cell lung = tested on: DMS 114 small cell lung
OVCAR-4 ovarian = tested on: OVCAR-4 ovarian
786-0 renal = tested on: 786-0 renal
SF-539 CNS = tested on: SF-539 CNS
SN12C renal = tested on: SN12C renal
RXF 393 renal = tested on: RXF 393 renal
CCRF-CEM leukemia = tested on: CCRF-CEM leukemia
OVCAR-8 ovarian = tested on: OVCAR-8 ovarian
HOP-62 NSCLC = tested on: HOP-62 NSCLC
M14 melanoma = tested on: M14 melanoma
HCT-15 colon = tested on: HCT-15 colon
HT29 colon = tested on: HT29 colon
SNB-78 CNS = tested on: SNB-78 CNS
TK-10 renal = tested on: TK-10 renal
XF 498 CNS = tested on: XF 498 CNS
HCT-116 colon = tested on: HCT-116 colon
DMS 273 small cell lung = tested on: DMS 273 small cell lung
UACC-62 melanoma = tested on: UACC-62 melanoma
HOP-92 NSCLC = tested on: HOP-92 NSCLC
A498 renal = tested on: A498 renal
OVCAR-3 ovarian = tested on: OVCAR-3 ovarian
UO-31 renal = tested on: UO-31 renal
RXF-631 renal = tested on: RXF-631 renal
LXFL 529 NSCLC = tested on: LXFL 529 NSCLC

c1ccc(C2SCc3nc4ccccc4n32)cc1 (centres undefined)
TGI (OVCAR-5 ovarian): > 100 µM
TGI (EKVX NSCLC): > 100 µM
TGI (SK-MEL-2 melanoma): > 100 µM
TGI (UACC-257 melanoma): 77.6 µM
TGI (COLO 205 colon): > 100 µM
TGI (HCC-2998 colon): > 100 µM
TGI (A549 NSCLC): > 100 µM
TGI (KM20L2 colon): > 100 µM
TGI (SR leukemia): > 100 µM
TGI (KM12 colon): > 100 µM
TGI (NCI-H226 lung): > 100 µM
TGI (SF-295 CNS): > 100 µM
TGI (NCI-H23 lung): > 100 µM
TGI (NCI-H460 lung): > 100 µM
TGI (SK-OV-3 ovarian): > 100 µM
TGI (K-562 leukemia): > 100 µM
TGI (SF-268 CNS): > 100 µM
TGI (SW-620 colon): > 100 µM
TGI (MOLT-4 leukemia): > 100 µM
TGI (ACHN renal): > 100 µM
TGI (MALME-3M melanoma): > 100 µM
TGI (NCI-H522 lung): 77.8 µM
TGI (M19-MEL melanoma): > 100 µM
TGI (SK-MEL-5 melanoma): 56.4 µM
TGI (SNB-75 CNS): 69.8 µM
TGI (U251 CNS): > 100 µM
TGI (HOP-18 NSCLC): 51.7 µM
TGI (SNB-19 CNS): > 100 µM
TGI (RPMI-8226 leukemia): 67.3 µM
TGI (HL-60(TB) leukemia): 46.5 µM
TGI (DLD-1 colon): > 100 µM
TGI (SK-MEL-28 melanoma): > 100 µM
TGI (LOX IMVI melanoma): > 100 µM
TGI (IGROV1 ovarian): > 100 µM
TGI (CAKI-1 renal): > 100 µM
TGI (DMS 114 small cell lung): 63.4 µM
TGI (OVCAR-4 ovarian): > 100 µM
TGI (786-0 renal): > 100 µM
TGI (SF-539 CNS): > 100 µM
TGI (SN12C renal): > 100 µM
TGI (RXF 393 renal): > 100 µM
TGI (CCRF-CEM leukemia): > 100 µM
TGI (OVCAR-8 ovarian): > 100 µM
TGI (HOP-62 NSCLC): > 100 µM
TGI (M14 melanoma): > 100 µM
TGI (HCT-15 colon): > 100 µM
TGI (HT29 colon): > 100 µM
TGI (SNB-78 CNS): > 100 µM
TGI (TK-10 renal): > 100 µM
TGI (XF 498 CNS): 95.4 µM
TGI (HCT-116 colon): > 100 µM
TGI (DMS 273 small cell lung): > 100 µM
TGI (UACC-62 melanoma): > 100 µM
TGI (HOP-92 NSCLC): > 100 µM
TGI (A498 renal): > 100 µM
TGI (OVCAR-3 ovarian): 54.5 µM
TGI (UO-31 renal): > 100 µM

O=C1C2=C(c3ccccc31)C(c1ccc([N+](=O)[O-])cc1)NC(=S)N2 (centres undefined)
TGI (OVCAR-5 ovarian): > 100 µM
TGI (EKVX NSCLC): > 100 µM
TGI (SK-MEL-2 melanoma): > 100 µM
TGI (UACC-257 melanoma): > 100 µM
TGI (COLO 205 colon): > 100 µM
TGI (A549 NSCLC): > 100 µM
TGI (KM20L2 colon): > 100 µM
TGI (KM12 colon): > 100 µM
TGI (NCI-H226 lung): > 100 µM
TGI (SF-295 CNS): > 100 µM
TGI (NCI-H23 lung): > 100 µM
TGI (NCI-H460 lung): > 100 µM
TGI (SK-OV-3 ovarian): > 100 µM
TGI (K-562 leukemia): > 100 µM
TGI (RXF-631 renal): > 100 µM
TGI (SF-268 CNS): > 100 µM
TGI (SW-620 colon): > 100 µM
TGI (MOLT-4 leukemia): > 100 µM
TGI (ACHN renal): > 100 µM
TGI (MALME-3M melanoma): > 100 µM
TGI (LXFL 529 NSCLC): > 100 µM
TGI (NCI-H522 lung): > 100 µM
TGI (M19-MEL melanoma): > 100 µM
TGI (SK-MEL-5 melanoma): > 100 µM
TGI (SNB-75 CNS): 98.6 µM
TGI (U251 CNS): > 100 µM
TGI (SNB-19 CNS): > 100 µM
TGI (RPMI-8226 leukemia): > 100 µM
TGI (HL-60(TB) leukemia): > 100 µM
TGI (DLD-1 colon): > 100 µM
TGI (SK-MEL-28 melanoma): > 100 µM
TGI (IGROV1 ovarian): > 100 µM
TGI (CAKI-1 renal): > 100 µM
TGI (DMS 114 small cell lung): > 100 µM
TGI (OVCAR-4 ovarian): > 100 µM
TGI (786-0 renal): > 100 µM
TGI (SF-539 CNS): > 100 µM
TGI (SN12C renal): > 100 µM
TGI (CCRF-CEM leukemia): > 100 µM
TGI (HOP-62 NSCLC): > 100 µM
TGI (M14 melanoma): > 100 µM
TGI (HCT-15 colon): > 100 µM
TGI (HT29 colon): > 100 µM
TGI (TK-10 renal): > 100 µM
TGI (XF 498 CNS): > 100 µM
TGI (HCT-116 colon): > 100 µM
TGI (DMS 273 small cell lung): > 100 µM
TGI (UACC-62 melanoma): > 100 µM
TGI (HOP-92 NSCLC): > 100 µM
TGI (A498 renal): > 100 µM
TGI (OVCAR-3 ovarian): > 100 µM
TGI (UO-31 renal): > 100 µM
